Key:
[1] = tested on: Aptamer 3 (Apt3) (RNA, aptamer) UCCACGUGGUGCCAUACUCCGGCGUGG; assay: electrochemical impedance (EIS); settings: 0.1 M KCl, 3 mM MgCl2; 100 µM; response about 15 times lower than with NH4+
[2] = tested on: Aptamer 2 (Apt2) (RNA, aptamer) UCGCGUCUAGCCCAUUGAUAGGCCCGA; assay: electrochemical impedance (EIS); settings: 0.1 M KCl, 3 mM MgCl2; 100 µM; response about 15 times lower than with NH4+
[3] = tested on: Aptamer 1 (Apt1) (RNA, aptamer) CCAUGUAAGCGCGGUACUCUUACGUGA; assay: electrochemical impedance (EIS); settings: 0.1 M KCl, 3 mM MgCl2; 100 µM; response about 15 times lower than with NH4+
[4] = tested on: Aptamer 5 (Apt5) (RNA, aptamer) GCCCUGGGCCGCUCAUUCCCUCUGGCU; assay: electrochemical impedance (EIS), Langmuir-Hill fit; settings: 0.1 M KCl, 3 mM MgCl2; PBS, pH about 7, 1 mM [Fe(CN)6]3-/4-, 15 min incubation
[5] = tested on: Aptamer 4 (Apt4) (RNA, aptamer) CCUCUCAGGCUUGUACUGCCACGAGGA; assay: electrochemical impedance (EIS), Langmuir-Hill fit; settings: 0.1 M KCl, 3 mM MgCl2; PBS, pH about 7, 1 mM [Fe(CN)6]3-/4-, 15 min incubation; decimal comma as printed
[6] = tested on: Aptamer 1 (Apt1) (RNA, aptamer) CCAUGUAAGCGCGGUACUCUUACGUGA; assay: electrochemical impedance (EIS), Langmuir-Hill fit; settings: 0.1 M KCl, 3 mM MgCl2; PBS, pH about 7, 1 mM [Fe(CN)6]3-/4-, 15 min incubation
[7] = tested on: Control (random sequence) (RNA, other) CUGAAGGCAGUCCGGUGCCCGGCCGGG; assay: electrochemical impedance (EIS); settings: 0.1 M KCl, 3 mM MgCl2; PBS, pH about 7, 15 min incubation; tested up to 500 mM
[8] = tested on: Aptamer 2 (Apt2) (RNA, aptamer) UCGCGUCUAGCCCAUUGAUAGGCCCGA; assay: electrochemical impedance (EIS), Langmuir-Hill fit; settings: 0.1 M KCl, 3 mM MgCl2; PBS, pH about 7, 1 mM [Fe(CN)6]3-/4-, 15 min incubation
[9] = tested on: Aptamer 3 (Apt3) (RNA, aptamer) UCCACGUGGUGCCAUACUCCGGCGUGG; assay: electrochemical impedance (EIS), Langmuir-Hill fit; settings: 0.1 M KCl, 3 mM MgCl2; PBS, pH about 7, 1 mM [Fe(CN)6]3-/4-, 15 min incubation

binding [1]	binding [2]	binding [3]	Kd [4] [mM]	Kd [5]	Kd [6] [mM]	binding [7]	Kd [8] [mM]	Kd [9] [mM]	SMILES
weak	weak	weak							CN(C)C
weak	weak	weak							CNC
			50	6,6 mM	36.59	no	16.11	131	N
